For one experiment, the target named is T1, 5-HT3 receptors (Homo sapiens, UniProt P46098).
T1 sequence (P46098 24-478): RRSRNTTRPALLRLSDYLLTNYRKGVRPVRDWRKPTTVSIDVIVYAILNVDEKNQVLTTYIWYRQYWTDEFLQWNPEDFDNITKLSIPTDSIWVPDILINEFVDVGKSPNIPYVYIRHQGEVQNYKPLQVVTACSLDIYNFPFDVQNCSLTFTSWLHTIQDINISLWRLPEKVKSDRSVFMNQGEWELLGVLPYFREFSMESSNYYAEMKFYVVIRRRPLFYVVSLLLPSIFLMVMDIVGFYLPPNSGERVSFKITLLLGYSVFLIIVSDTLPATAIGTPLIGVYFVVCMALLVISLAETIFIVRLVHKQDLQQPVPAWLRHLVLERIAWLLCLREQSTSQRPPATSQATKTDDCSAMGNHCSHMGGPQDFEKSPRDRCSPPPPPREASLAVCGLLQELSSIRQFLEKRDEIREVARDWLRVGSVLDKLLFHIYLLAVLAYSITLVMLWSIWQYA
As to the kind of experiment: In vitro affinity test for 5-HT3 receptors. As to conditions: conventional binding technique, read-out: Ki with respect to 5-HT3 receptors. How it is done:
(§1) EXAMPLE 8: In vitro affinity test for endazoline, α1 and α2 and 5-HT receptors
(§2) The in vitro affinity tests for endazoline receptors were carried out according to a technique described by A. Parini et al. (Biochem. and Biophys. Res. Comm. 147(3), 1055, 1987), and according to conventional binding techniques for the other receptors.

A further experiment addresses 5-HT1B receptors (Rattus norvegicus, UniProt P28564). As to the kind of experiment: In vitro affinity test for 5-HT1B receptors. As to conditions: conventional binding technique, read-out: Ki with respect to 5-HT1B receptors. As for the experimental part:
as §1, §2

The target in the next experiment is 5 HT2 receptors (Homo sapiens, UniProt P28223). As to the kind of experiment: In vitro affinity test for 5-HT2 receptors. The note with it: conventional binding technique, read-out: Ki with respect to 5 HT2 receptors. How it is done:
as §1, §2

Another experiment deals with T2, 5-HT1A receptors (Homo sapiens, UniProt P08908).
T2 sequence (P08908 1-422): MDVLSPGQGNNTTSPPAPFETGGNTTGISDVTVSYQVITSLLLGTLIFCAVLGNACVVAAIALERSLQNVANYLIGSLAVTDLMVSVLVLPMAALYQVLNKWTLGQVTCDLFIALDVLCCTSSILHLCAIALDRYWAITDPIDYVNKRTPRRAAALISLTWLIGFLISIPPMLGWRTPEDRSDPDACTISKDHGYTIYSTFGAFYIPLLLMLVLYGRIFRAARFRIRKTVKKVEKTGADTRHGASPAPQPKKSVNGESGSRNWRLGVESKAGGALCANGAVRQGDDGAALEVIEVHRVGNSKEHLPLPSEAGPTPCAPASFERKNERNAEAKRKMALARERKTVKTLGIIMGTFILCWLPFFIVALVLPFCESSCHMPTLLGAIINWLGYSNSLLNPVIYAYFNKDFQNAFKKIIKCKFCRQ
As to the kind of experiment: In vitro affinity test for 5-HT1A receptors. As to conditions: conventional binding technique, read-out: Ki with respect to 5-HT1A receptors. How it is done: as §1, §2

Structures can show the parent of a compound that is named as a salt.

5-HT1B receptors, sequence (P28564 whole entry): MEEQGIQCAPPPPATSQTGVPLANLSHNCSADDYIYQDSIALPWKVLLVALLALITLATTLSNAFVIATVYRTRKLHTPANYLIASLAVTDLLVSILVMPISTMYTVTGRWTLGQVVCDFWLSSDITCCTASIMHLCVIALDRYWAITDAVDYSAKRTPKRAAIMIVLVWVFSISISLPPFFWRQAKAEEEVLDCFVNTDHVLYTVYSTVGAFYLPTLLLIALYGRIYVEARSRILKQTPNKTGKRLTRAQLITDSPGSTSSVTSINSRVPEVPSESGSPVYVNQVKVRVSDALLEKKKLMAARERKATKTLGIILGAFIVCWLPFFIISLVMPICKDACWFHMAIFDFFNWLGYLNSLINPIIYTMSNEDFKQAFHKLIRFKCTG
5 HT2 receptors, sequence (P28223 whole entry): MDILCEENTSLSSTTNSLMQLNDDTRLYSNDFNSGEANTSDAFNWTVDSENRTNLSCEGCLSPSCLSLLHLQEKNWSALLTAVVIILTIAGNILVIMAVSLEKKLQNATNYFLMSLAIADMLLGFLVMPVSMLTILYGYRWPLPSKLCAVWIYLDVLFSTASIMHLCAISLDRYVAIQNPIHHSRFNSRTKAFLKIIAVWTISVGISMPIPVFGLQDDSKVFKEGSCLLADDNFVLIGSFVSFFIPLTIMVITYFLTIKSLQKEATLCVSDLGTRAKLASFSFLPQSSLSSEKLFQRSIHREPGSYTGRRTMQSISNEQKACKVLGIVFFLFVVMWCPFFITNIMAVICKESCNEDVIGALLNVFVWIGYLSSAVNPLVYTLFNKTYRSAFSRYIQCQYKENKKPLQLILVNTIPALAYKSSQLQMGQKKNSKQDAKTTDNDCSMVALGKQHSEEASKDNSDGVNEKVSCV

For the compound `N=C(N)NN=CC(C1CC1)C1CC1` [Example 2, (2,2-Dicyclopropylethylidene)aminoguanidine hydrochloride], the inhibition constant (Ki) – broadly, a measure of affinity in units of concentration, obtained from inhibition or displacement – was around 2 µM on 5-HT3 receptors, around 100 µM at 5-HT1B receptors, around 20 µM on 5 HT2 receptors and around 10 µM at 5-HT1A receptors.

The values are drawn from patent US5296498A, “Guanidine compounds” (Adir et Compagnie, priority 1990, dated 1994).
